US11564912B2, “Methods for treating irritable bowel syndrome (IBS)” (Salix Pharmaceuticals, Inc., priority 2008, dated 2023)

Experiments:
Type in all cases: in vivo, human
[1] = test system: patients with diarrhea-predominant IBS (dIBS); assay: 34-item IBS-QOL questionnaire, rifaximin 550 mg BID vs placebo; design: key to Mean Change From Baseline in IBS-QOL Scores at Week 4: change in score on 0–100 scale, higher = better QOL; conditions: for Mean Change From Baseline in IBS-QOL Scores at Week 4: Rifaximin 1100 mg/d (n = 191)
Experimental: Both groups received placebo for an additional 14 days after the initial 2-week treatment. Quality of life was assessed with the 34-item IBS-QOL questionnaire at baseline and 4 weeks after initiating treatment. Each item was scored on a 5-point scale (1=not at all; 2=slightly; 3=moderately; 4=quite a bit; and 5=extremely or a great deal). Results for composite and subscale scores were converted to a scale ranging from 0 to 100, with higher scores indicating better QOL.
Following a 2-week initial treatment period, both groups of patients received placebo for an additional 14 days. Quality of life was assessed via the 34-item IBS-QOL questionnaire at baseline and 4 weeks after initiating treatment. Each item was scored on a 5-point scale (1=not at all; 2=slightly; 3=moderately; 4=quite a bit; 5=extremely or a great deal); results for composite and subscale scores were converted to a scale ranging from 0 to 100, with higher scores indicating better QOL.

subjects with IBS [2] = assay: Study 1 of rifaximin 550 mg TID for 14 days, analysis after 3 months
From the text: (§1) A measure of efficacy is based on subjects' answers to the Weekly Subject Global Assessment (SGA) questions over the study duration in relation to their IBS symptoms.

subjects with IBS [3] = assay: Combined analysis of the two studies of rifaximin 550 mg TID
From the text: as §1

subjects with IBS [4] = assay: as above; remark: listed apart in the source
[5] = <2 for at least 50% of days in a week for at least 2 weeks during PEP
[6] = at least 2 out of 4 weeks adequate relief during weeks 3 through 6 (weekly question)
[7] = weekly mean vs baseline for at least 2 weeks during PEP
[8] = weekly median vs baseline for at least 2 weeks during PEP

(2S,16Z,18E,20S,21S,22R, 23R,24R,25S,26S,27S,28E)-5,6,21,23,25 Pentahydroxy-27-methoxy -2,4,11,16,20,22,24,26-octamethyl-2,7-(epoxypentadeca-(1,11,13)trienimino)benzofuro (4,5-e) pyrido(1,2,-a) benzimidazole-1,15(2H)-dione,25-acetate [Rifaximin]
Improvement with rifaximin over placebo, IBS-QOL at Week 4 ([1]; Body image): 37.4%
Mean Change From Baseline in IBS-QOL Scores at Week 4 ([1]; Body image): 20.1
Improvement with rifaximin over placebo, IBS-QOL at Week 4 ([1]; Dysphoria): 25.3%
Mean Change From Baseline in IBS-QOL Scores at Week 4 ([1]; Dysphoria): 24.8
Improvement with rifaximin over placebo, IBS-QOL at Week 4 ([1]; Food avoidance): 22.1%
Mean Change From Baseline in IBS-QOL Scores at Week 4 ([1]; Food avoidance): 25.0
Improvement with rifaximin over placebo, IBS-QOL at Week 4 ([1]; Health worry): 30.6%
Mean Change From Baseline in IBS-QOL Scores at Week 4 ([1]; Health worry): 16.0
Improvement with rifaximin over placebo, IBS-QOL at Week 4 ([1]; Interference with activity): 22.2%
Mean Change From Baseline in IBS-QOL Scores at Week 4 ([1]; Interference with activity): 22.2
Improvement with rifaximin over placebo, IBS-QOL at Week 4 ([1]; Overall score): 28.7%
Mean Change From Baseline in IBS-QOL Scores at Week 4 ([1]; Overall score, 14 days, scale 0 to 100): 20.4
Improvement with rifaximin over placebo, IBS-QOL at Week 4 ([1]; Relationship): 39.5%
Mean Change From Baseline in IBS-QOL Scores at Week 4 ([1]; Relationship): 14.9
Improvement with rifaximin over placebo, IBS-QOL at Week 4 ([1]; Sexual): 24.9%
Mean Change From Baseline in IBS-QOL Scores at Week 4 ([1]; Sexual): 13.6
Improvement with rifaximin over placebo, IBS-QOL at Week 4 ([1]; Social reaction): 31.6%
Mean Change From Baseline in IBS-QOL Scores at Week 4 ([1]; Social reaction): 17.3
Daily abdominal pain <2, responders (subjects with IBS [2]; [5]): 40%
Global IBS symptoms, responders (subjects with IBS [2]; [6]): 41%
IBS symptom of Bloating, responders (subjects with IBS [2]; [6]): 40%
Abdominal Pain reduction of 2 point in mean, responders (subjects with IBS [2]; at least 2 weeks during PEP): 26%
Abdominal Pain reduction of 2 point in median, responders (subjects with IBS [2]; at least 2 weeks during PEP): 37%
Abdominal Pain reduction of 3 point in mean, responders (subjects with IBS [2]; at least 2 weeks during PEP): 6% vs 7%
Abdominal Pain reduction of 3 point in median, responders (subjects with IBS [2]; at least 2 weeks during PEP): 22%
Overall reduction of mean weekly abdominal pain by >=25%, responders (subjects with IBS [2]; at least 2 weeks during PEP): 56%
Overall reduction of mean weekly abdominal pain by >=50%, responders (subjects with IBS [2]; at least 2 weeks during PEP): 36%
Overall reduction of mean weekly abdominal pain by >=75%, responders (subjects with IBS [2]; at least 2 weeks during PEP): 14%
Overall reduction of median weekly abdominal pain by >=25%, responders (subjects with IBS [2]; at least 2 weeks during PEP): 63%
Overall reduction of median weekly abdominal pain by >=50%, responders (subjects with IBS [2]; at least 2 weeks during PEP): 44%
Overall reduction of median weekly abdominal pain by >=75%, responders (subjects with IBS [2]; at least 2 weeks during PEP): 23%
Abdominal pain reduction of 1 point in mean, responders (subjects with IBS [2]; [7]): 52%
Abdominal pain reduction of 1 point in median, responders (subjects with IBS [2]; [8]): 63%
Abdominal Pain reduction of 2 point in mean, responders (subjects with IBS [3]; at least 2 weeks during PEP): 25%
Overall reduction of mean weekly abdominal pain by >=25%, responders (subjects with IBS [3]; at least 2 weeks during PEP): 57%
Overall reduction of mean weekly abdominal pain by >=50%, responders (subjects with IBS [3]; at least 2 weeks during PEP): 35%
Overall reduction of mean weekly abdominal pain by >=75%, responders (subjects with IBS [3]; at least 2 weeks during PEP): 14%
Overall reduction of median weekly abdominal pain by >=25%, responders (subjects with IBS [3]; at least 2 weeks during PEP): 62%
Overall reduction of median weekly abdominal pain by >=50%, responders (subjects with IBS [3]; at least 2 weeks during PEP): 44%
Overall reduction of median weekly abdominal pain by >=75%, responders (subjects with IBS [3]; at least 2 weeks during PEP): 21%
Abdominal pain reduction of 1 point in mean, responders (subjects with IBS [3]; [7]): 52%
Daily abdominal pain <2, responders (subjects with IBS [4]; [5]): 39%
Global IBS symptoms, responders (subjects with IBS [4]; [6]): 41%
IBS symptom of Bloating, responders (subjects with IBS [4]; [6]): 40%
Abdominal Pain reduction of 2 point in median, responders (subjects with IBS [4]; at least 2 weeks during PEP): 39%
Abdominal Pain reduction of 3 point in mean, responders (subjects with IBS [4]; at least 2 weeks during PEP): 6% vs 7%
Abdominal Pain reduction of 3 point in median, responders (subjects with IBS [4]; at least 2 weeks during PEP): 21%
Abdominal pain reduction of 1 point in median, responders (subjects with IBS [4]; [8]): 63%
